A short description of data set [1]: Total plasma concentration in Wistar Han rat at 1 to 2 mg/kg, iv infused for 10 to 20 hrs by LC-MS/MS analysis. Conditions: in vivo.
Data set [2] can be described thus: Drug concentration in total white adipose tissue in Wistar Han rat at 1 to 2 mg/kg, iv infused for 10 to 20 hrs by LC-MS/MS analysis. The conditions noted are these: in vivo.
Data set [3] in a line: Drug concentration in total brain in Wistar Han rat at 1 to 2 mg/kg, iv infused for 10 to 20 hrs by LC-MS/MS analysis. Conditions: in vivo.
Data set [4] in a line: Drug concentration in total heart in Wistar Han rat at 1 to 2 mg/kg, iv infused for 10 to 20 hrs by LC-MS/MS analysis. Conditions: in vivo.
A short description of data set [5]: Drug concentration in total liver in Wistar Han rat at 1 to 2 mg/kg, iv infused for 10 to 20 hrs by LC-MS/MS analysis. Conditions: in vivo.
Data set [6] can be described thus: Drug concentration in total skeletal muscle in Wistar Han rat at 1 to 2 mg/kg, iv infused for 10 to 20 hrs by LC-MS/MS analysis. The conditions noted are these: in vivo.
The nature of data set [7]: Unbound tissue partition coefficient, ratio of drug level in heart to plasma in Wistar Han rat at 1 to 2 mg/kg, iv infused for 10 to 20 hrs by LC-MS/MS analysis. The conditions noted are these: heart/plasma.
A short description of data set [8]: Unbound tissue partition coefficient, ratio of drug level in brain to plasma in Wistar Han rat at 1 to 2 mg/kg, iv infused for 10 to 20 hrs by LC-MS/MS analysis. The conditions noted are these: brain/plasma.
Data set [9] in a line: Unbound tissue partition coefficient, ratio of drug level in adipose to plasma in Wistar Han rat at 1 to 2 mg/kg, iv infused for 10 to 20 hrs by LC-MS/MS analysis. The conditions noted are these: adipose/plasma.
The nature of data set [10]: Unbound tissue partition coefficient, ratio of drug level in liver to plasma in Wistar Han rat at 1 to 2 mg/kg, iv infused for 10 to 20 hrs by LC-MS/MS analysis. The conditions noted are these: liver/plasma.
Data set [11] can be described thus: Unbound tissue partition coefficient, ratio of drug level in skeletal muscle to plasma in Wistar Han rat at 1 to 2 mg/kg, iv infused for 10 to 20 hrs by LC-MS/MS analysis. Conditions: skeletal muscle/plasma.
A short description of data set [12]: Fraction unbound in Wistar Han rat plasma at 2 uM incubated for 6 hrs by equilibrium dialysis method. In general terms: In equilibrium dialysis free small molecules cross a membrane that holds back macromolecules.
The nature of data set [13]: Fraction unbound in Wistar Han rat white adipose tissue at 2 uM incubated for 6 hrs by equilibrium dialysis method.
A short description of data set [14]: Fraction unbound in Wistar Han rat brain at 2 uM incubated for 6 hrs by equilibrium dialysis method.
Data set [15] is described as follows: Fraction unbound in Wistar Han rat heart at 2 uM incubated for 6 hrs by equilibrium dialysis method.
A short description of data set [16]: Fraction unbound in Wistar Han rat liver at 2 uM incubated for 6 hrs by equilibrium dialysis method.
The nature of data set [17]: Fraction unbound in Wistar Han rat skeletal muscle at 2 uM incubated for 6 hrs by equilibrium dialysis method.
Data set [18] in a line: Apparent permeability of the compound across dog RRCK cells by MDCK-LE assay.

This is an account of results in ChEMBL document CHEMBL4373746, “Structural attributes influencing unbound tissue distribution” (Eur J Med Chem, 2020).

Regarding `O=C(O)C(=O)Nc1ccc(NC(=O)[C@H](CC2CCCC2)n2cnc(C(F)(F)F)c2)nc1`, in data set [1], the Cp turned out to be 110 ng/mL. In addition, the Ct in [2] worked out at 0.77 ng/mL; in [3], 0.38 ng/mL; in data set [4] it was 20 ng/mL; in [5] it was 300 ng/mL; in [6], 0.9 ng/mL. Moreover, the Kp uu came out at 0.75 in data set [7]; 0.0018 in data set [8]; 0.024 in data set [9]; 7.2 in data set [10]; 0.02 in data set [11].
One may read the fraction unbound as free concentration divided by total concentration. Read a low fraction unbound as extensive binding. In general, Papp refers to a coefficient for how fast a substance crosses the barrier. As to `O=C(NC1CCCC1)C1CCN(c2nc3cc(Cl)ccc3o2)CC1`, the fraction unbound at 6 h, 2 µM was 0.00646 in data set [12]; 0.0248 in data set [13]; 0.0144 in data set [14]; 0.0292 in data set [15]; 0.0414 in data set [16]; 0.02 in data set [17]. Also, the Cp in data set [1] turned out to be 310 ng/mL. Further, the Ct in data set [2] was found to be 330 ng/mL; in data set [3], 88 ng/mL; in [4], 150 ng/mL; in data set [5] it was 210 ng/mL; in data set [6], 59 ng/mL. Moreover, the Kp uu in data set [7] turned out to be 2.2; in [8] it was 0.64; in [9], 3.9; in data set [10] it was 4.3; in data set [11] it was 0.61. In addition, the apparent permeability (Papp) in data set [18] amounted to 35 ×10⁻⁶ cm/s.
Turning to `Cc1nc([C@@H]2CCOC2)c2c(N3CCc4c(c(C5CC5)nn4C)C3)ncnn12`, the fraction unbound at 6 h, 2 µM in data set [12] turned out to be 0.178; in data set [13], 0.101; in data set [14] it was 0.103; in [15] it was 0.171; in data set [16], 0.195; in data set [17] it was 0.23. In data set [1], this compound returned a Cp of 66 ng/mL. The Ct in [2] stood at 270 ng/mL; in [3], 52 ng/mL; in data set [4], 110 ng/mL; in data set [5], 380 ng/mL; in data set [6], 75 ng/mL. The Kp uu in [7] amounted to 1.7; in data set [8] it was 0.46; in data set [9], 2.3; in [10], 6.2; in [11], 1.5. Besides, the apparent permeability coefficient (Papp) in [18] was found to be 30 ×10⁻⁶ cm/s.
As to `Nc1noc2ccc(-c3cc(Cl)ccc3Oc3cc(F)c(S(=O)(=O)Nc4cscn4)cc3F)cc12`, the free fraction (fraction unbound) at 6 h, 2 µM in data set [12] is 0.00155; in data set [13] it was 0.0123; in data set [14], 0.00141; in data set [15] it was 0.000968; in [16] it was 0.00176; in data set [17], 0.00165. For the same compound, in data set [1], the Cp was 36 ng/mL. Also, the Ct is 11 ng/mL in [2]; 0.38 ng/mL in data set [3]; 54 ng/mL in data set [4]; 1.4 ng/mL in [5]; 18 ng/mL in data set [6]. The Kp uu in data set [7] was 0.9; in [8] it was 0.0018; in data set [9], 2.4; in [10] it was 0.033; in [11] it was 0.54. For the same compound, the Papp in [18] was determined as 3.8 ×10⁻⁶ cm/s.
With `CC1(OC(=O)N2CCC(n3ncc(COc4ccc(C(N)=O)cc4F)c3C#N)CC2)CC1`, the free fraction (fraction unbound) at 6 h, 2 µM in [12] is 0.044; in data set [13] it was 0.137; in data set [14], 0.0366; in [15], 0.0693; in [16], 0.0561; in data set [17], 0.0634. For the same compound, the Cp in [1] worked out at 150 ng/mL. The Ct is 73 ng/mL in data set [2]; 40 ng/mL in data set [3]; 220 ng/mL in [4]; 520 ng/mL in data set [5]; 100 ng/mL in data set [6]. Besides, the Kp uu in data set [7] came to 2.8; in [8], 0.24; in [9] it was 1.6; in data set [10], 4.7; in data set [11], 1. Further, in data set [18], the apparent permeability (Papp) was 26 ×10⁻⁶ cm/s.
As to `O=c1[nH]c(=S)n(CCO)c2cc[nH]c12`, the fraction unbound at 6 h, 2 µM in data set [12] turned out to be 0.817; in data set [13], 1; in data set [14] it was 0.347; in data set [15] it was 0.667; in [16] it was 0.696; in data set [17], 0.276. In addition, the Cp in [1] is 32 ng/mL. Further, the Ct came out at 0.86 ng/mL in data set [2]; 3.7 ng/mL in data set [3]; 45 ng/mL in data set [4]; 70 ng/mL in data set [5]; 38 ng/mL in data set [6]. The Kp uu in data set [7] was 1.1; in data set [8], 0.048; in [9] it was 0.027; in [10], 1.9; in data set [11], 0.41. Also, the Papp in data set [18] came to 1.7 ×10⁻⁶ cm/s.
Turning to `Cn1cnc(-c2ccc(O[C@H]3CCN(C(=O)Cc4ccc(OC(F)(F)F)cc4)C[C@@H]3F)c(C(N)=O)c2)c1`, the unbound share (fraction unbound) at 6 h, 2 µM stood at 0.0645 in [12]; 0.179 in [13]; 0.0216 in data set [14]; 0.0378 in [15]; 0.0393 in data set [16]; 0.0611 in data set [17]. Also, the Cp in data set [1] worked out at 76 ng/mL. The Ct was 6 ng/mL in data set [2]; 0.38 ng/mL in data set [3]; 100 ng/mL in data set [4]; 540 ng/mL in data set [5]; 69 ng/mL in data set [6]. Moreover, the Kp uu in [7] is 0.8; in data set [8] it was 0.0018; in [9], 0.21; in data set [10], 4.4; in [11] it was 0.87. In data set [18], the apparent permeability coefficient (Papp) came out at 14 ×10⁻⁶ cm/s.
In the case of `CN(C)C(=O)c1cc(CC(=O)O)ccc1NC(=O)c1ccccc1-c1ccc(C(F)(F)F)cc1`, the fraction unbound at 6 h, 2 µM in [12] stood at 0.214; in [13], 0.309; in data set [14], 0.183; in data set [15], 0.311; in data set [16], 0.205; in [17] it was 0.174. Moreover, the Cp in data set [1] came to 83 ng/mL. The Ct amounted to 5.7 ng/mL in data set [2]; 0.42 ng/mL in data set [3]; 44 ng/mL in [4]; 4200 ng/mL in data set [5]; 21 ng/mL in data set [6]. Moreover, the Kp uu in data set [7] was determined as 0.77; in [8], 0.0037; in [9] it was 0.1; in data set [10], 49; in data set [11], 0.21. The Papp in data set [18] came out at 1.4 ×10⁻⁶ cm/s.
Regarding `CC(=O)N1CCN(c2ccc(OCC3COC(Cn4ccnc4)(c4ccc(Cl)cc4Cl)O3)cc2)CC1` (stereo not drawn) [KETOCONAZOLE], the apparent permeability (Papp) in data set [18] is 4.2 ×10⁻⁶ cm/s.
